Measured values: patent US9758505B2, “3-(indol-3-yl)-pyridine derivatives, pharmaceutical compositions and methods for use” (ITEOS THERAPEUTICS, priority 2014, dated 2017)
Where a name gives a salt, the structure may show the parent alone.

Experiments:
human TDO2 [1] = target: T1, human TDO2 (Homo sapiens (Human), UniProt P48775); test: Cellular assay for TDO2 activity, hTDO2-overexpressing P815 cells; format: cell-based; details: murine mastocytoma P815 cells overexpressing hTDO2, overnight incubation, kynurenine in supernatant
Procedure: The compounds of Formula I inhibit the activity of human TDO2 in cells.
The assay (adapted from Pilotte L et al., Proc Natl Acad Sci USA, 2012, 109(7), 2497-502) was performed in 96-well flat bottom plates seeded with murine mastocytoma P815 cells overexpressing hTDO2 (prepared as described in Pilotte et al., PNAS, 2012, 109(7), 2497-2502), at a concentration of 5×10^4 cells/well in a final volume of 200 μL. To determine TDO or IDO activity, the cells were incubated overnight at 37° C. at 5% CO2 in IMDM (Invitrogen) supplemented with 2% FBS and 2% penicillin/streptomycin in the presence of the compounds of the present invention, at different concentrations. The cells may be obtained from the American Type Cuylture Collecion [ATCC® TIB-64™ or commercially, e.g., from Sigma-Aldrich or Life Technologies.]
(§1) The plates were then centrifuged 5 min at 1000 rpm, and 100 μL of the supernatant were collected in a conical plate, 30 uL of TCA 30% were added and a further centrifugated at 3000×g for 10 minutes. 100 μL of the supernatant were collected in a flat bottomed plate and 100 μL of 2% (w/v) 4-(dimethylamino)-benzaldehyde in acetic acid and incubated for 5 min at room temperature. Kynurenine concentrations were determined by measuring the absorbance at 480 nm. A standard curve was made with pure kynurenine. The TDO activity was measured as described above using ten serial concentrations of the compounds of the present invention. Data were fitted using the Prism™ software (GraphPad Software, Inc.) using standard software configurations.

human TDO2 [2] = target: T1, human TDO2; test: Assay for TDO2 enzymatic activity determination; format: biochemical; details: human recombinant TDO2, L-Trp 1 mM, kynurenine absorbance at 480 nm
Procedure: The compounds of formula I inhibit the enzymatic activity of human TDO2.
To measure the TDO2 activity, the procedure described in Dolusic et al. J. Med. Chem.; 2011, 54, […] was adapted: the reaction mixture contained (final concentrations) potassium phosphate buffer (50 mM, pH 7.5), ascorbic acid (0.25 M), methylene blue (0.125 μM), catalase (40 units/mL, from bovine liver, Sigma), and human recombinant TDO2 enzyme (prepared as described in Dolusic et al. J. Med. Chem.; 2011, 54, 5320-5334; 0.9 μg) without or with the compounds of the present invention at the indicated concentrations (total volume 112.5 μL). The reaction was initiated by the addition of 37.5 μL of L-Trp (final concentration 1 mM) at room temperature. The reaction was conducted at room temperature during one hour and stopped by the addition of 30 μL of 30% (w/v) trichloroacetic acid.
To convert N-formylkynurenine into kynurenine, the reaction mixture was incubated at 65° C. for 30 min. Then 150 μL of the reaction mixture was mixed with 120 μL of 2.5% (w/v) 4-(dimethylamino)-benzaldehyde in acetic acid and incubated for 5 min at room temperature. Kynurenine concentrations were determined by measuring the absorbance at 480 nm. A standard curve was made with pure kynurenine. The TDO activity was measured as described above using ten serial concentrations of the compounds of the present invention. Data were fitted using the Prism™ software (GraphPad Software, Inc.) using standard software configurations.

human TDO2 [3] = target: T1, human TDO2; test: Cellular assay for TDO2 activity, A172 cells naturally expressing hTDO2; format: cell-based; details: human glioblastoma A172 cells, overnight incubation, kynurenine in supernatant
Procedure: A172 is a cell line derived from human brain glioblastoma cells.
To determine TDO, the cells were incubated overnight at 37° C. at 5% CO2 in IMDM (Invitrogen) supplemented with 2% FBS and 2% penicillin/streptomycin in the presence of the compounds of the present invention, at different concentrations.
as §1

T1 sequence (P48775 whole entry): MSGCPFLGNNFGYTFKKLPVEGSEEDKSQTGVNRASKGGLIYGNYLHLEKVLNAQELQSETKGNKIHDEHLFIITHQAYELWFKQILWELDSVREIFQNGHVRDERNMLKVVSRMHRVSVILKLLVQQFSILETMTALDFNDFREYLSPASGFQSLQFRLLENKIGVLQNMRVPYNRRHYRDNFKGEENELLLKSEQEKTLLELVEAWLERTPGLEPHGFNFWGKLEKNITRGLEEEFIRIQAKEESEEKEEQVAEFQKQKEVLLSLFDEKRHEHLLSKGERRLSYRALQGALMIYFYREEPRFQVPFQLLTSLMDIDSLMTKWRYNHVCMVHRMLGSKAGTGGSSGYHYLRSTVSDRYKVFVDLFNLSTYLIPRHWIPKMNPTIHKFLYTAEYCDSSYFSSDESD

Q: What does the source list for `Cc1ccc(-c2c[nH]c3cc(F)ccc23)cn1` [Example 1, 6-fluoro-3-(6-methylpyridin-3-yl)-1H-indole]?
A: IC50 (human TDO2 [1]): 0.18 µM; IC50 (human TDO2 [2]): 0.37 µM

Q: `Fc1ccc2c(-c3ccc(OC4CCNCC4)nc3)c[nH]c2c1` [Example 2, 6-fluoro-3-(6-(piperidin-4-yloxy)pyridin-3-yl)-1H-indole] was tested. Which IC50 (human TDO2 [2]) did it give?
A: 0.56 µM

Q: Which IC50 (human TDO2 [2]) does the source give for `CN1CCC(Oc2ccc(-c3c[nH]c4cc(F)ccc34)cn2)CC1` [Example 3, 6-fluoro-3-(6-(1-methylpiperidin-4-yloxy)pyridin-3-yl)-1H-indole] here?
A: 1.2 µM

Q: With `CN(C)CCOc1ccc(-c2c[nH]c3cc(F)ccc23)cn1` [Example 4, 2-(5-(6-fluoro-1H-indol-3-yl)pyridin-2-yloxy)-N,N-dimethylethanamine] as the compound, how does the IC50 (human TDO2 [1]) read?
A: 0.68 µM

Q: And the IC50 (human TDO2 [2])?
A: 39 µM

Q: `COc1ccc(-c2c[nH]c3cc(F)ccc23)cn1` [Example 5, 6-fluoro-3-(6-methoxypyridin-3-yl)-1H-indole] was tested. Which IC50 (human TDO2 [1]) did it give?
A: 0.12 µM

Q: What about the IC50 (human TDO2 [2]) of the same compound?
A: 0.73 µM

Q: How did the IC50 (human TDO2 [2]) turn out when `CS(=O)(=O)N1CCC(Oc2ccc(-c3c[nH]c4cc(F)ccc34)cn2)CC1` [Example 6, 6-fluoro-3-(6-(1-(methylsulfonyl)piperidin-4-yloxy)pyridin-3-yl)-1H-indole] was run?
A: 1.3 µM

Q: What does the source list for `CN(C)c1ccc(-c2c[nH]c3cc(F)ccc23)cn1` [Example 7, 5-(6-fluoro-1H-indol-3-yl)-N,N-dimethylpyridin-2-amine]?
A: IC50 (human TDO2 [1]): 0.32 µM; IC50 (human TDO2 [2]): 0.38 µM

Q: How did the IC50 (human TDO2 [1]) turn out when `CC(=O)N(C)c1ccc(-c2c[nH]c3cc(F)ccc23)cn1` [Example 8, N-(5-(6-fluoro-1H-indol-3-yl)pyridin-2-yl)-N-methylacetamide] was run?
A: 0.49 µM

Q: `Fc1ccc2c(-c3ccc(N4CCOCC4)nc3)c[nH]c2c1` [Example 9, 4-(5-(6-fluoro-1H-indol-3-yl)pyridin-2-yl)morpholine] was tested. Which IC50 (human TDO2 [1]) did it give?
A: 0.21 µM

Q: And the IC50 (human TDO2 [2])?
A: 0.54 µM

Q: With `CN1CCN(c2ccc(-c3c[nH]c4cc(F)ccc34)cn2)CC1` [Example 10, 6-fluoro-3-(6-(4-methylpiperazin-1-yl)pyridin-3-yl)-1H-indole] as the compound, how does the IC50 (human TDO2 [1]) read?
A: 0.13 µM

Q: What about the IC50 (human TDO2 [2]) of the same compound?
A: 0.72 µM

Q: For `NCC(=O)N1CCN(c2ccc(-c3c[nH]c4cc(F)ccc34)cn2)CC1` [Example 11, 2-amino-1-(4-(5-(6-fluoro-1H-indol-3-yl)pyridin-2-yl)piperazin-1-yl)ethanone], which IC50 (human TDO2 [1]) is on record?
A: 0.65 µM

Q: And the IC50 (human TDO2 [2])?
A: 0.65 µM

Q: For `NCC(=O)NC1CCN(c2ccc(-c3c[nH]c4cc(F)ccc34)cn2)CC1` [Example 13, 2-amino-N-(1-(5-(6-fluoro-1H-indol-3-yl)pyridin-2-yl)piperidin-4-yl)acetamide], which IC50 (human TDO2 [1]) is on record?
A: 0.55 µM

Q: What about the IC50 (human TDO2 [2]) of the same compound?
A: 1.7 µM

Q: What does the source list for `Nc1ccc(-c2c[nH]c3cc(F)ccc23)cn1` [Example 15, 5-(6-fluoro-1H-indol-3-yl)pyridin-2-amine]?
A: IC50 (human TDO2 [1]): 0.13 µM; IC50 (human TDO2 [2]): 1.1 µM

Q: How did the IC50 (human TDO2 [2]) turn out when `Nc1ccc(-c2c[nH]c3cc(F)c(F)cc23)cn1` [Example 16, 5-(5,6-difluoro-1H-indol-3-yl)pyridin-2-amine] was run?
A: 1.6 µM

Q: For `CCN1CCC(Nc2ccc(-c3c[nH]c4cc(F)ccc34)cn2)CC1` [Example 18, N-(1-ethylpiperidin-4-yl)-5-(6-fluoro-1H-indol-3-yl)pyridin-2-amine], which IC50 (human TDO2 [2]) is on record?
A: 4.8 µM

Q: With `CS(=O)(=O)N1CCC(Nc2ccc(-c3c[nH]c4cc(F)ccc34)cn2)CC1` [Example 19, 5-(6-fluoro-1H-indol-3-yl)-N-(1-(methylsulfonyl)piperidin-4-yl)pyridin-2-amine] as the compound, how does the IC50 (human TDO2 [2]) read?
A: 0.65 µM

Q: With `CC(=O)NCCCNc1ccc(-c2c[nH]c3cc(F)ccc23)cn1` [Example 20, N-(3-(5-(6-fluoro-1H-indol-3-yl)pyridin-2-ylamino)propyl)acetamide] as the compound, how does the IC50 (human TDO2 [2]) read?
A: 0.87 µM

Q: What does the source list for `NS(=O)(=O)CCCNc1ccc(-c2c[nH]c3cc(F)ccc23)cn1` [Example 23, 3-((5-(6-fluoro-1H-indol-3-yl)pyridin-2-yl)amino)propane-1-sulfonamide]?
A: IC50 (human TDO2 [3]): 0.49 µM; IC50 (human TDO2 [1]): 0.43 µM

Q: Which IC50 (human TDO2 [2]) does the source give for `CS(=O)(=O)NCCNc1ccc(-c2c[nH]c3cc(F)ccc23)cn1` [Example 26, N-(2-(5-(6-fluoro-1H-indol-3-yl)pyridin-2-ylamino)ethyl)methanesulfonamide hydrochloride] here?
A: 0.71 µM

Q: Which IC50 (human TDO2 [1]) does the source give for `NS(=O)(=O)CCNc1ccc(-c2c[nH]c3cc(F)ccc23)cn1` [Example 29, 2-((5-(6-fluoro-1H-indol-3-yl)pyridin-2-yl)amino)ethanesulfonamide] here?
A: 0.24 µM

Q: Which results are given for `O=C(Nc1ccc(-c2c[nH]c3cc(F)ccc23)cn1)C1CCNCC1` [Example 35, N-(5-(6-fluoro-1H-indol-3-yl)pyridin-2-yl)piperidine-4-carboxamide]?
A: IC50 (human TDO2 [3]): 0.53 µM; IC50 (human TDO2 [1]): 0.25 µM

Q: Which IC50 (human TDO2 [1]) does the source give for `C[C@H](N)C(=O)Nc1ccc(-c2c[nH]c3cc(F)ccc23)cn1` [Example 37, (S)-2-amino-N-(5-(6-fluoro-1H-indol-3-yl)pyridin-2-yl)propanamide] here?
A: 0.45 µM

Q: `NCC(=O)Nc1ccc(-c2c[nH]c3cc(F)ccc23)cn1` [Example 39, 2-amino-N-(5-(6-fluoro-1H-indol-3-yl)pyridin-2-yl)acetamide] was tested. Which IC50 (human TDO2 [1]) did it give?
A: 0.35 µM

Q: How did the IC50 (human TDO2 [2]) turn out when `[O-][n+]1cccc(-c2c[nH]c3cc(F)ccc23)c1` [Example 49, 3-(6-fluoro-1H-indol-3-yl)pyridine 1-oxide] was run?
A: 11 µM

Q: For `CC(=O)NCCNc1ccc(-c2c[nH]c3cc(F)ccc23)cn1` [Example 50, N-(2-((5-(6-fluoro-1H-indol-3-yl)pyridin-2-yl)amino)ethyl)acetamide], which IC50 (human TDO2 [1]) is on record?
A: 1 µM

Q: `NCC(=O)NCCNc1ccc(-c2c[nH]c3cc(F)ccc23)cn1` [Example 51, 2-amino-N-(2-((5-(6-fluoro-1H-indol-3-yl)pyridin-2-yl)amino)ethyl)acetamide] was tested. Which IC50 (human TDO2 [1]) did it give?
A: 0.85 µM

Q: How did the IC50 (human TDO2 [1]) turn out when `O=C(Nc1ccc(-c2c[nH]c3cc(F)ccc23)cn1)C1CC1` [Example 52, N-(5-(6-fluoro-1H-indol-3-yl)pyridin-2-yl)cyclopropanecarboxamide] was run?
A: 0.12 µM

Q: Which results are given for `CN(c1ccc(-c2c[nH]c3cc(F)ccc23)cn1)S(C)(=O)=O` [Example 54, N-(5-(6-fluoro-1H-indol-3-yl)pyridin-2-yl)-N-methylmethanesulfonamide]?
A: IC50 (human TDO2 [3]): 0.42 µM; IC50 (human TDO2 [1]): 0.16 µM

Q: How did the IC50 (human TDO2 [3]) turn out when `NCCS(=O)(=O)NC1CCN(c2ccc(-c3c[nH]c4cc(F)ccc34)cn2)CC1` [Example 55, 2-amino-N-(1-(5-(6-fluoro-1H-indol-3-yl)pyridin-2-yl)piperidin-4-yl)ethanesulfonamide] was run?
A: 0.99 µM

Q: And the IC50 (human TDO2 [1])?
A: 0.29 µM

Q: Which IC50 (human TDO2 [3]) does the source give for `CN(C)CCS(=O)(=O)NC1CCN(c2ccc(-c3c[nH]c4cc(F)ccc34)cn2)CC1` [Example 56, 2-(dimethylamino)-N-(1-(5-(6-fluoro-1H-indol-3-yl)pyridin-2-yl)piperidin-4-yl)ethanesulfonamide] here?
A: 0.64 µM

Q: What about the IC50 (human TDO2 [1]) of the same compound?
A: 0.24 µM

Q: `CS(=O)(=O)N1CCC(C(=O)Nc2ccc(-c3c[nH]c4cc(F)ccc34)cn2)CC1` [Example 61, N-(5-(6-fluoro-1H-indol-3-yl)pyridin-2-yl)-1-(methylsulfonyl)piperidine-4-carboxamide] was tested. Which IC50 (human TDO2 [3]) did it give?
A: 0.99 µM

Q: What about the IC50 (human TDO2 [1]) of the same compound?
A: 0.17 µM

Q: What does the source list for `O=c1ccc(-c2c[nH]c3cc(F)ccc23)c[nH]1` [Example 69, 5-(6-fluoro-1H-indol-3-yl)pyridin-2(1H)-one]?
A: IC50 (human TDO2 [3]): 0.37 µM; IC50 (human TDO2 [1]): 0.26 µM

Q: How did the IC50 (human TDO2 [3]) turn out when `O=C1NCCN1c1ccc(-c2c[nH]c3cc(F)ccc23)cn1` [Example 78, 1-(5-(6-fluoro-1H-indol-3-yl)pyridin-2-yl)imidazolidin-2-one] was run?
A: 0.49 µM

Q: And the IC50 (human TDO2 [2])?
A: 16 µM

Q: `CN(CCC(N)=O)S(=O)(=O)c1ccc(-c2c[nH]c3cc(F)ccc23)cn1` [Example 101, 3-(5-(6-fluoro-1H-indol-3-yl)-N-methylpyridine-2-sulfonamido)propanamide] was tested. Which IC50 (human TDO2 [3]) did it give?
A: 0.36 µM
